{
  "source": "patent US20110106000A1",
  "about": "“Nitric Oxide Compositions and Devices and Methods for Cosmesis” (MICROPHARMA LIMITED, priority 2008, published 2011)",
  "key": {"porcine liver esterase": {"tested_on": "porcine liver esterase", "assay": "Enzymatic generation of gNO with porcine liver esterase, sodium nitrite and ester substrates", "type": "biochemical", "conditions": "for substrate ranking for porcine liver esterase (gNO generation): FIG. 31, measured hourly; for gNO production: porcine liver esterase, sodium nitrite", "protocol": "(§1) Enzymatic Generation of gNO: A 200 μl reaction solution was prepared by combining water, an acetate ester (ethyl acetate, isobutyl acetate, octyl acetate) or a triglyceride such as triacetin (glyceryl triacetate), sodium nitrite, and an esterase (porcine liver esterase, rhyzopus oryzae esterase) or a lipase (porcine pancreatic lipase, candida rugosa lipase). The solution was then added to a 2 ml vial, which was closed tightly with a septum cap. The head gas was sampled every hour from the reaction containing vials in order to determine gNO concentrations."}, "candida rugosa lipase": {"tested_on": "candida rugosa lipase", "assay": "Enzymatic generation of gNO with candida rugosa lipase, sodium nitrite and ester substrates", "type": "biochemical", "protocol": "as §1"}},
  "data": [
    {"smiles": "CCOC(C)=O", "note": "[ethyl acetate]", "values": [
      {"measurement": "substrate ranking for porcine liver esterase (gNO generation)", "setting": "porcine liver esterase", "value": "best substrates"}
    ]},
    {"smiles": "CC(=O)OCC(COC(C)=O)OC(C)=O", "note": "[triacetin, glyceryl triacetate]", "values": [
      {"measurement": "gNO production", "setting": "porcine liver esterase; 0.5% triacetin in the assay", "value": "≤ 200", "unit": "ppmV"},
      {"measurement": "gNO production", "setting": "porcine liver esterase; 1% triacetin in the assay", "value": "up to 250 ppmV"},
      {"measurement": "substrate ranking for porcine liver esterase (gNO generation)", "setting": "porcine liver esterase", "value": "best substrates"},
      {"measurement": "gNO production", "setting": "porcine liver esterase; over the 6 hour experiment", "value": "> 350", "unit": "ppmV"},
      {"measurement": "nitric oxide production (in words)", "setting": "candida rugosa lipase; candida rugosa lipase tested against four substrates", "value": "able to produce high amounts of nitric oxide"},
      {"measurement": "gNO production", "setting": "candida rugosa lipase; candida rugosa lipase, sodium nitrite, one hour after the reaction was started", "value": "≥ 200", "unit": "ppmV"}
    ]}
  ]
}
